# Data as given in US11292002B2, “Surfactant additives for digital microfluidic devices for high protein content droplets transport” (THE GOVERNING COUNCIL OF THE UNIVERSITY OF TORONTO, priority 2016, dated 2022).
# Target: BSA (Bos taurus, UniProt P02769)
# Assay: Circular dichroism (CD) spectra of BSA with surfactant
# Type: physicochemical, bovine
# Conditions: 0.1 g·L^−1 BSA; 1, 2, 2.5, 4, or 6 mM SDS
# From the text: Resolution of CD is ±0.1 degree.
# Surfactant-protein complexation is often associated with molecular rearrangement of the protein (i.e., change in protein conformation). […] Protein conformation changes can be probed using circular dichroism (CD) experiments, as illustrated in FIG. 5.
# Chain of BSA (P02769 25-607): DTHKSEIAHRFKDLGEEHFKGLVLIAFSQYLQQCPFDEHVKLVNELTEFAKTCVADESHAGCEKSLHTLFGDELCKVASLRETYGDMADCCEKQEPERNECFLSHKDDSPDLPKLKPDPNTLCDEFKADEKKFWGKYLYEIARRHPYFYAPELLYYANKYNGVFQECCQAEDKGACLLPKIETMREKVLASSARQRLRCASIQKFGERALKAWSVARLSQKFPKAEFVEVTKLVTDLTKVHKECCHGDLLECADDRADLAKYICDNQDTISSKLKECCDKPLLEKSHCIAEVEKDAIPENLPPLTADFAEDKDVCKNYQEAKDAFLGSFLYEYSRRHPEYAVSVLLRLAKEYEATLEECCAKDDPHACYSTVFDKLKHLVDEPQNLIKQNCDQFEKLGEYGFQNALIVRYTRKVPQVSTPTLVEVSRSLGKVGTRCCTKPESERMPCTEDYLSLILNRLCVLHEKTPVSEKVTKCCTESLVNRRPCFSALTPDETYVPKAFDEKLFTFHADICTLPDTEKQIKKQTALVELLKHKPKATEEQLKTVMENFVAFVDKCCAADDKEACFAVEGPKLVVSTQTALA
smiles,measurement,value
"CCCCCCCCCCCCOS(=O)(=O)[O-].[Na+] [SDS, sodium dodecyl sulfate]",CD spectrum of BSA with surfactant compared with BSA alone,distinctly different CD spectrum
